Data from PMC12706802, “Ortho-Hydroxyanilides: Slow-Acting, Selective Histone Deacetylase 1/2 Inhibitors Suitable for Photocaging Applications” (ACS Pharmacology & Translational Science, 2025).
Values joined by “and” are separate entries in the source; they are usually repeats but may differ in a detail not shown here. Identical values can stand only once.

Tests used:
HDACs in MV-3 cells = test: HDAC whole cell inhibition assay; settings: Homo sapiens, MV-3, light or radiation study, 18 h, read-out: whole-cell HDAC inhibition EC50, MV-3
HDAC2 [1] = molecular target: T1, HDAC2 (Homo sapiens, UniProt Q92769); test: 100-fold jump-dilution experiments; settings: 1 h incubation at 10-fold IC50, then 1:100 dilution
HDAC1 [2] = molecular target: T2, HDAC1 (Homo sapiens, UniProt Q13547); test: 100-fold jump-dilution experiments; settings: 1 h incubation at 5-fold IC50, then 1:100 dilution
[3] = test system: Ac-histone H3 (class I HDACs); test: Immunoblot analysis of MV-3 cell lysates incl. wash out; type: cell-based, human; settings: for histone H3 acetylation after wash out (immunoblot): MV-3, 5 μM for 48 h, then up to 6 h without inhibitor; for acetylation level of histone H3 (immunoblot): MV-3, 5 μM, 24–72 h, substantial increase after 72 h
Procedure: The impact on the acetylation levels of the HDAC substrates Ac-histone H3 (class I HDACs) and Ac-α-tubulin (HDAC6) was analyzed by immunoblot analysis.
6 Immunoblot analysis of MV-3 cell lysates. […] Representative images from at least three replicates are shown. DMSO (0.025%) was used as vehicle control and GAPDH as loading control.
After that, cells were treated with a concentration of 5 μM of HDAC inhibitor or vehicle (DMSO) for additional 24 h, 48 h or 72 h. For cell lysis the cells were initially washed with PBS and detached using a scraper. The cells were then centrifuged at 1200 rpm for 4 min at 4 °C, followed by two additional washing steps. After that, the cell pellet was resuspended in 100 μL of freshly prepared lysis buffer and incubated on ice for 30 min with vortexing every 10 min. The lysis buffer consisted of Invitrogen cell extraction buffer (10 mM Tris, pH 7.4, 100 mM NaCl, […], […], 1 mM NaF, 20 mM Na4P2O7, 2 mM Na3VO4, 1% Triton × −100, 10% glycerol, 0.1% SDS, 0.5% deoxycholate; Catalog# FNN0011, Thermo Fisher Scientific Inc., Waltham, MA, USA), supplemented with 0.1 mM PMSF (Catalog# 10837091001, Sigma-Aldrich, St. Louis, MO, USA) and Halt Protease Inhibitor (100×) (Catalog# 78429, Life Technologies GmbH Carlsbad, CA, USA). Finally, the samples were centrifuged at 14,000 rpm and 4 °C for 30 min and the supernatant was collected. Protein quantification was performed by using BCA protein assay reagents (Catalog# 23225, Thermo Fisher Scientific Inc., Waltham, MA, USA). Lysates were mixed with Laemmli sample buffer 2× concentrate (Catalog# S3401-10VL, Sigma-Aldrich, St. Louis, MO, USA) to a protein concentration of 1.25 μg/μL and denatured at 95 °C for 5 min. Subsequently, SDS-PAGE was performed with 2–20% Mini-PROTEAN TGX stain-free gels (Catalog# 456809, Bio-Rad, Hercules, CA, USA) at 200 V for 45 min. Proteins were then transferred to a Trans-Blot Turbo-PVDF membrane (Catalog# 1704156, Bio-Rad, Hercules, CA, USA) with the Trans-Blot Turbo Transfer System (Catalog# 1704150, Bio-Rad, Hercules, CA, USA) at 25 V for 5 min. The membrane was blocked with a solution of 5% milk powder in TBST (Tris-buffered saline-Tween 20 0.2%) for 60 min at room temperature. After three washing cycles for 10 min with TBST, the membrane was incubated with the respective antibody and a mouse anti-GAPDH antibody (Catalog# T0004, Affinity Biosciences, Cincinnati, OH, USA; 1:20,000 dilution) at room temperature for 60 min and 4 °C overnight. […] After washing off the secondary antibody, protein bands were detected via chemiluminescence using Clarity Western ECL substrate (Catalog# 1705061, Bio-Rad, Hercules, CA, USA). […]

HDAC1 [4] = molecular target: T2, HDAC1; test: IC50-shift (preincubation time) experiments
human recombinant HDAC3 = human recombinant HDAC3 (Homo sapiens, UniProt O15379); test: Fluorescence-based biochemical HDAC enzyme inhibition assay (ZMAL substrate); settings: HDAC3 IC50, preincubation of enzyme and inhibitor 1 h at RT; no irradiation
HDAC1 [5] = molecular target: T2, HDAC1; test: as above; settings: HDAC1 IC50, preincubation of enzyme and inhibitor 1 h at RT; no irradiation
HDAC2 [6] = molecular target: T1, HDAC2; test: IC50-shift (preincubation time) experiments
HDAC6 = test system: HDAC6; design: method as in earlier work; settings: Figure 1; ref 'Data taken from refs' (numbers not given); cited from earlier work
HDAC3 = test system: HDAC3; design: method as in earlier work; settings: Figure 1 and b11; ref 'Data taken from refs' (numbers not given); cited from earlier work
HDAC2 [7] = settings: literature value for Cpd-60; ref number not given; cited from earlier work

T1 sequence (Q92769 whole entry): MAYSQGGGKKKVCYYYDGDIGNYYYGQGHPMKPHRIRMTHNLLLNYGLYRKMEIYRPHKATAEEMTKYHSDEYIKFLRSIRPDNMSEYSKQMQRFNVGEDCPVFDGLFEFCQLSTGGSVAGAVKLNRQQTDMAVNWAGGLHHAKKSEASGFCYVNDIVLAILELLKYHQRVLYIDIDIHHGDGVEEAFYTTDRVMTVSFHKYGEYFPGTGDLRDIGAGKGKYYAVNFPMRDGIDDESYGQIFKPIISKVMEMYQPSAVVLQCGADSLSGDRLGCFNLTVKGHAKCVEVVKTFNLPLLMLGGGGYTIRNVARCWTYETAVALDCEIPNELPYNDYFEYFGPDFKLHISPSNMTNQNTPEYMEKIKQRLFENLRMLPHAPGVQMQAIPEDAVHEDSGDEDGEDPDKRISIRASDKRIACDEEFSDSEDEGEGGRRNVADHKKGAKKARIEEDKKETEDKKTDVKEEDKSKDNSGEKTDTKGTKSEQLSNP
T2 sequence (Q13547 whole entry): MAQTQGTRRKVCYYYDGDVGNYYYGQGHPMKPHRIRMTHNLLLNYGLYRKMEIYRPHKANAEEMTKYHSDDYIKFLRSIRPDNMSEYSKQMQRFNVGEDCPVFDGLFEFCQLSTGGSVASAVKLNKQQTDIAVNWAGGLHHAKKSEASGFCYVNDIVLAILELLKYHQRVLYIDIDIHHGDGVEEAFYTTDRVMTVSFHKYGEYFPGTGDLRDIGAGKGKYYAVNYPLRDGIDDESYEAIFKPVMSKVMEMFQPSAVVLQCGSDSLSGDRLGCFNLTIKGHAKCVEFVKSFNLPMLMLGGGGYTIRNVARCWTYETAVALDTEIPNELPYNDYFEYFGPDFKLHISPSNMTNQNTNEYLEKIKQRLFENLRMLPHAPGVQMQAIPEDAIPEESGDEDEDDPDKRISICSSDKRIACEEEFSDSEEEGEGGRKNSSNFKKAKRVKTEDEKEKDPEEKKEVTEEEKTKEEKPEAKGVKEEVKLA
human recombinant HDAC3, sequence (O15379 whole entry): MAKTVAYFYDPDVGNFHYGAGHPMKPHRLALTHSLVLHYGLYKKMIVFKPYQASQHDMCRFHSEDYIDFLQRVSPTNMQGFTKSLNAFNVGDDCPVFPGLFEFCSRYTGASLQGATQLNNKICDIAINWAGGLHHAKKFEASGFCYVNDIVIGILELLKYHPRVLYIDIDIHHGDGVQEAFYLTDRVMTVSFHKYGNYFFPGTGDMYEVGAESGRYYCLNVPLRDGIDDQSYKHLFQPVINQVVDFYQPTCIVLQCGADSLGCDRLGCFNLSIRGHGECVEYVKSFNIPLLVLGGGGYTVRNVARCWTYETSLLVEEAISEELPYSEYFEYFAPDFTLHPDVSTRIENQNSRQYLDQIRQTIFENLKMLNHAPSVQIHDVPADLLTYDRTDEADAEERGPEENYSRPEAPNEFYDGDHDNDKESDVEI
human recombinant HDAC3, sequence (Q9Y618 395-489 partner limits assumed): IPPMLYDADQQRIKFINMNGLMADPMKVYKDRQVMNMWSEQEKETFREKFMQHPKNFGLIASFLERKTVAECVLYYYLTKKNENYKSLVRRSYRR

dissociation behavior from HDAC2 upon 100-fold dilution (HDAC2 [1]) | dissociation behavior from HDAC1 upon 100-fold dilution (HDAC1 [2]) | IC50 (HDAC1 [4]; HDAC1 IC50, preincubation time 5 min) [nM] | IC50 (HDAC1 [4]; HDAC1 IC50, preincubation time 30 min) [nM] | IC50 (HDAC1 [4]; HDAC1 IC50, preincubation time 60 min) [nM] | IC50 (HDAC1 [4]; HDAC1 IC50, preincubation time 120 min) [nM] | IC50 (human recombinant HDAC3) | IC50 (HDAC1 [5]) [nM] | IC50 (HDAC2 [6]; HDAC2 IC50, preincubation time 5 min) [nM] | IC50 (HDAC2 [6]; HDAC2 IC50, preincubation time 30 min) [nM] | IC50 (HDAC2 [6]; HDAC2 IC50, preincubation time 60 min) [nM] | IC50 (HDAC2 [6]; HDAC2 IC50, preincubation time 120 min) [nM] | Structure (SMILES) | EC50 (HDACs in MV-3 cells) [nM] | histone H3 acetylation after wash out (immunoblot) [3] | acetylation level of histone H3 (immunoblot) [3] | IC50 (HDAC6) [nM] | IC50 (HDAC3) [nM] | IC50 (HDAC2 [7]) [nM]
tight-binding properties | tight-binding properties | 55 ± 7 | 36 ± 4 | 34 ± 5 | 25 ± 3 | 4300 nM and 6640 nM | 23 ± 4 | 82 ± 12 | 83 ± 3 | 75 ± 5 | 49 ± 9 | CC(=O)Nc1ccc(C(=O)Nc2cc(-c3ccccc3)ccc2O)cc1 [ST13, 4-Acetamido-N-(4-hydroxy-[1,1′-biphenyl]-3-yl)-benzamide] | 311 ± 47 | persistent histone H3 acetylation | hyperacetylation of histone H3 | – | – | –
– | – | – | – | – | – | – | – | – | – | – | – | CC(=O)Nc1ccc(C(=O)Nc2cc(-c3cccs3)ccc2N)cc1 [Cpd-60, reference compound] | 97 ± 26 | persistent histone H3 acetylation | hyperacetylation of histone H3 | […] | […] | 49
